US20230129034A1, “TREATMENT OF DISEASE WITH ESTERS OF SELECTIVE RXR AGONISTS” (Io Therapeutics, Inc., priority 2017, published 2023)
“Also recorded” adds a separate entry of the source.

Columns and labels:
[1] = system: demyelination in C57BL/6J mice; assay: Cuprizone/rapamycin (CR) chronic 12-week mouse model of toxic demyelination; type: in vivo; conditions: 12 weeks CR; for # of Myelinated Axons per CC unit (PPD staining, corpus callosum) / % Area of Myelin Cortex (PLP staining) / % Area of Myelin Hippocampus (PLP staining): then 10 mg/kg/d PO daily for 6 weeks, with or without 20 ng/g thyroxine SC
Method: Mice are fed a cuprizone-containing diet and injected with rapamycin daily (CR regimen) for 12 weeks to induce demyelination. One group of animals is sacrificed at 12 weeks to evaluate demyelination. […] At the end of the study, all mice are sacrificed and one or more of the following parameters are determined: (1) PPD (p-phenylenediamine) staining to visualize and quantify myelinated axons in corpus callosum to assess demyelination and remyelination in white matter; (2) myelin proteolipid protein (PLP) immunostaining to visualize and quantify myelin in hippocampus to assess demyelination and remyelination in grey matter (hippocampus); (3) PLP immunostaining to visualize and quantify myelin in cortex to assess demyelination and remyelination in grey matter (cortex); (4) PDGFRα immunostaining to visualize and quantify OPCs in corpus callosum; (5) GSTpi immunostaining to visualize and quantify oligodendrocytes in corpus callosum; (6) Iba1 (ionized calcium-binding adapter molecule 1) and/or Mac-2 (galectin-3) immunostaining to visualize and quantify total and activated microglia in corpus callosum; (7) GFAP (glial fibrillary acidic protein) immunostaining to visualize and quantify astrocytes in corpus callosum To assess astroglial activation; and (8) 3D-electron microscopy in corpus callosum to assess ratio of myelinated and non-myelinated axons, internodal length, G-ratio, mitochondrial changes, etc.
The animals (8 week-old male C57BL/6J mice) are subjected to cuprizone diet plus rapamycin injections (CR) for 12 weeks to induce demyelination in white matter (CC, corpus callosum). After 12 weeks, CR is discontinued and subsets of animals are treated daily for 6 weeks with one of the following treatment regimens:
All animals are sacrificed after 12 weeks of CR (Group 7) or after further 6 weeks of treatment (Groups 1-6) to evaluate myelin in white matter (corpus callosum) and gray matter (hippocampus and cortex). In addition, the size of myelinated axons are quantified and the large myelinated axons are further assessed by 3D-electron microscopy (3D-EM).
A total of 92 mice are included in the study. Eight week-old male C57BL/6J mice are placed on a rodent chow (Harlan) containing 0.3% cuprizone for 12 weeks. These mice are also injected with rapamycin (approximately 10 mg/kg body weight at the volume of 0.1 ml, IP) daily for 12 weeks. Eight mice are maintained on a normal diet. The weight of the animals is monitored on a weekly-basis.
The drug is reconstituted in vehicle (DMSO/PBS/Tween) and fresh drug is made up once a week and administered orally once daily. […] Similarly, subgroups (n=12) of CR treated mice are treated with oral IRX4204EE and subcutaneous thyroxine vehicle (Group 5) or oral IRX4204EE and subcutaneous thyroxine (Group 6) at the indicated doses.
Epon-PPD stained sections of corpus callosum are evaluated in bright field at 10X, 20X and 63X (oil objective). A total of 4 images (63X) per animal are collected in the region of interest (ROI), which is a specific region between the rostral corpus callosum and the junction of the fornix. The images outside the ROI are not scored. The images are then evaluated using NIH ImageJ (aka. Fiji) to identify and count myelinated axons in the region of interest. The numbers of PPD-stained myelinated axons in all of the counting boxes for each image are counted. Using the polygon selection tool, the margins of the corpus callosum in each slice are identified and ImageJ is then used to calculate the total area of the CC in that slice. The total number of myelinated axons in a specific area of the corpus callosum is then calculated by dividing the total area of the CC by the total area of the counting boxes and multiplying by the combined number of myelinated axons that are counted in all of the counting boxes for each image. […]

[2] = system: EAE in SJL mice; assay: EAE in SJL mice, PLP peptide induced; type: in vivo; conditions: for symptoms of EAE in SJL mice: 50 µg i.p. every other day from day 7
Method: To determine whether a RXR agonist or an ester of a RXR agonist can attenuate multiple sclerosis, SJL mice were immunized to induce EAE by s.c. injection at the base of their spine with 200 µL of adjuvant containing 200 µg proteolipid proteins (139-151) (PLP peptide; Peptides International, Louisville, KY) and 400 µg of non-viable M. tuberculosis H37 desiccate emulsified in a mixture of incomplete Freund’s adjuvant and PBS. Mice were also given 150 ng of pertussis toxin in PBS i.p. on the same day as PLP emulsion injection and 2 days later. […] Mice were scored using the scale described in Example 6.

[3] = system: oligodendrocyte precursor cells (OPCs); assay: Oligodendrocyte precursor cell differentiation (PLP-EGFP OPCs); type: cell-based, mouse; conditions: for OPC differentiation into oligodendrocytes (EGFP positive cells): compared to negative control (DMSO)
Source text: OPCs were generated from a neurosphere culture of E14.5 PLP-EGFP (on C57BL/6J background) mouse brains. […] The EGFP expressing cells were quantified with Cellomics Neuronal Profiling Algorithm.
The EGFP expressing cells in controls and all compounds were quantified with Cellomics Neuronal Profiling Algorithm.

[4] = system: breast cancer cells; assay: Proliferation of breast cancer cells in vitro; type: cell-based
[5] = molecular target: T1, RARβ (Homo sapiens, UniProt P10826); assay: RAR transactivation assay (ER-RAR fusion, ERE-tk-Luc reporter, CV-1 cells); type: cell-based; conditions: 20 hours, luciferase activity
T1 construct: expressed in transfected cells; host or cells: CV-1
T1 sequence (P10826 183-417 limits assumed, species assumed): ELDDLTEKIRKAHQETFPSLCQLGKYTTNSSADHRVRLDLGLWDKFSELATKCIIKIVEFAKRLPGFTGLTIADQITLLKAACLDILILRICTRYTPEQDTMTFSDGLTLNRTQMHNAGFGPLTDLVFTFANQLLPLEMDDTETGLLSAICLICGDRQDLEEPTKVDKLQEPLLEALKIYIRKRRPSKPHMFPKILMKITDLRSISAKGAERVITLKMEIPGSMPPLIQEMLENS
Source text: (§1) Data are mean values ± SE from five independent experiments.

[6] = molecular target: T2, RARγ (Homo sapiens, UniProt P13631); assay: as above; type: cell-based; conditions: 20 hours, luciferase activity
T2 construct: expressed in transfected cells; host or cells: CV-1
T2 sequence (P13631 185-419 limits assumed, species assumed): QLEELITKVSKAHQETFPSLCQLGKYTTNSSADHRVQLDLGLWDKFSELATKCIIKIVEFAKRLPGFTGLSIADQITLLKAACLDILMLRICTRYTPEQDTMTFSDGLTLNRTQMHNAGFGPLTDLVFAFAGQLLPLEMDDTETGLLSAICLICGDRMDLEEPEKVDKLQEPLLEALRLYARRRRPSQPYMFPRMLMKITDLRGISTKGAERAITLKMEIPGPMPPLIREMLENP
Source text: as §1

[7] = molecular target: T3, RXRβ (Homo sapiens, UniProt P28702); assay: Competitive displacement of [3H]-9CRA from purified receptor; conditions: 10 nM [3H]-9CRA; read-out: RXR Binding Affinity Ki (nM) RXRβ
T3 construct: an expression construct including a full length RXRα, RXRβ, or RXRy; expressed in transfected cells; host or cells: CV-1
T3 sequence (P28702 1-533): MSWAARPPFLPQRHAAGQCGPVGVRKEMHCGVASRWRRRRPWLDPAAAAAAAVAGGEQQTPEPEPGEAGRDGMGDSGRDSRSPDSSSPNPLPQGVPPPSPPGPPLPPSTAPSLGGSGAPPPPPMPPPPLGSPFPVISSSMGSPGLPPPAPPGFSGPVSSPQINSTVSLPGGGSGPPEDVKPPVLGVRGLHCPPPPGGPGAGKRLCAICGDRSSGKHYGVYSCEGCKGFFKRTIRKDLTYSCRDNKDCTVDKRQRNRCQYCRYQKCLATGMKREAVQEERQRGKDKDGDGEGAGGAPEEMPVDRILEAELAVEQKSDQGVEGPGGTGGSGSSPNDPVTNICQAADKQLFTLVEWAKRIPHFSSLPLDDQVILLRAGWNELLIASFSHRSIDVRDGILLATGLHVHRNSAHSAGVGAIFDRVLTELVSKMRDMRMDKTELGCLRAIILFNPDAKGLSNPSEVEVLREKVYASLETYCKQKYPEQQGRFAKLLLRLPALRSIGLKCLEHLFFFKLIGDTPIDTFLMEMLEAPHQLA
Source text: Standard errors (±) among independent experiments are indicated.

[8] = 50 µg i.p. every other day from day 7, n=6

CC(/C=C/[C@@H]1C[C@]1(C)c1ccc2c(c1)C(C)(C)CCC2(C)C)=C\C(=O)O [IRX4204, 3,7-dimethyl-6(S),7(S)-methano,7-[1,1,4,4-tetramethyl-1,2,3,4-tetrahydronaphth-7-yl]2(E),4(E) heptadienoic acid]
# of Myelinated Axons per CC unit (PPD staining, corpus callosum) [1]: 1570 | % Area of Myelin Cortex (PLP staining) [1]: 48% | % Area of Myelin Hippocampus (PLP staining) [1]: 38% | average diameter of myelinated axons ([1]; then 6 weeks treatment): approximately 0.9 µm | increase in myelin volume compared to vehicles control ([1]; then 6 weeks treatment): approximately 15% | symptoms of EAE in SJL mice [2]: significantly reduces the symptoms of EAE | Death from Disease [2, 8]: 0/6 | Disease Incidence [2, 8]: 4/6 | Mean Maximum Score [2, 8]: 1.5 ± 1.4 | OPC differentiation into oligodendrocytes by concentration ([3]; all tested concentrations but the lowest concentration (1^-6 µM)): significant increase in OPC differentiation | total cell number and pyknotic cells ([3]; compared to controls): did not show any differences | OPC differentiation into oligodendrocytes (EGFP positive cells) [3]: promotes OPC differentiation | inhibition of proliferation of breast cancer cells ([4]; 10 nM): observably inhibit the proliferation | inhibition of proliferation of breast cancer cells ([4]; 100 nM): substantial improvement in effectiveness

CCOC(=O)/C=C(C)/C=C/[C@@H]1C[C@]1(C)c1ccc2c(c1)C(C)(C)CCC2(C)C [IRX4204EE, 3,7-dimethyl-6(S),7(S)-methano,7-[1,1,4,4-tetramethyl-1,2,3,4-tetrahydronaphth-7-yl]2(E),4(E) heptadienoic ethyl ester]
# of Myelinated Axons per CC unit (PPD staining, corpus callosum) [1]: 4300 | % Area of Myelin Cortex (PLP staining) [1]: 85% | % Area of Myelin Hippocampus (PLP staining) [1]: 68% | increase in myelin volume compared to vehicles control ([1]; then 6 weeks treatment): approximately 25% | remyelination and neuroprotection activity relative to IRX4204 groups ([1]; then 6 weeks treatment): greater remyelination and neuroprotection activity than the corresponding IRX4204 treated groups | EC50 [5]: > 1000 nM | EC50 [6]: > 1000 nM | symptoms of EAE in SJL mice [2]: greater efficacy than IRX4204 | OPC differentiation into oligodendrocytes (EGFP positive cells) [3]: essentially no activity; also recorded: considerably less active | Ki [7]: > 1000 nM
